Consider 41 compounds from patent publication US7452997B2 (priority 2004, dated 2008).

Assay [1] addresses T1, human CB1 receptor (Homo sapiens, UniProt P21554).
T1 construct: expressed in transfected cells; host or cells: SK-N-MC cells, stably transfected with pcDNA3 CB-1 (human); semi-purified membrane pellet
As to the kind of experiment: biochemical. The assay is classed as binding. The procedure: (§1) Binding Assay for CB1 or CB2 Agonists or Inverse Agonists
(§2) The human CB1 and CB2 receptors were stably expressed in SK-N-MC cells transfected with pcDNA3 CB-1 (human) or pcDNA3 CB-2 (human). The cells were grown in T-180 cell culture flasks under standard cell culture conditions at 37° C. in a 5% CO2 atmosphere. The cells were harvested by trysinization and homogenized in a homogenization buffer (10 mM Tris, 0.2 mM MgCl2, 5 mM KCl, with protease inhibitors aprotinin, leupeptin, pepstatin A and bacitracin) and centrifuged (2000 g). The supernatant was then centrifuged in 2M sucrose (31,300 g) to produce a semi-purified membrane pellet. The pellet was resuspended in homogenization and store at −80° C.
On the day of the assay, the pellet was thawed on ice and diluted in assay buffer (50 mM Tris-HCl, 5 mM MgCl2, 2.5 mM EDTA, 0.5 mg/mL fatty acid free bovine serum albumin, pH 7.5). […] The plate was covered and incubated for 90 minutes at 30° C. The contents were then aspirated onto a Packard […] GF/C filter bottom plate prewet with 0.5% polyethyleneimine. The wells of the polypropylene plate were rinsed and aspirated seven times with a 0.9% saline-0.5% TWEEN 20 solution. The […] plate was dried, a scintillation cocktail was added to each well and the counts representing binding were quantitated in a TOPCOUNT scintillation counter.
(§3) The IC50 binding values for compounds tested were calculated by linear regression and were obtained from studies in which varying compound concentrations were used.

Assay [2] has as its target human CB2 receptor (Homo sapiens, UniProt P34972). As to the kind of experiment: Binding assay, cannabinoid CB2 receptor ([3H]-CP-55,940 displacement). The note with it: Cannabinoid CB2 Receptor Binding IC50, human CB2 receptor, SK-N-MC cell membranes, radioligand CP-55,940 0.2 nM. As for the experimental part: as §1, §2
On the day of the assay, the pellet was thawed on ice and diluted in assay buffer (50 mM Tris-HCl, 5 mM MgCl2, 2.5 mM EDTA, 0.5 mg/mL fatty acid free bovine serum albumin, pH 7.5). The diluted membrane was added with buffer, test compound or standard and the radioligand [H]^3+-CP-55,940_(0.2 nM) to the wells of a 96-well polypropylene plate. Non-specific binding was measured in wells containing 10 uM WIN 55,212. The plate was covered and incubated for 90 minutes at 30° C. The contents were then aspirated onto a Packard UNIFILTER GF/C filter bottom plate prewet with 0.5% polyethyleneimine. The wells of the polypropylene plate were rinsed and aspirated seven times with a 0.9% saline-0.5% TWEEN 20 solution. The UNIFILTER plate was dried, a scintillation cocktail was added to each well and the counts representing binding were quantitated in a TOPCOUNT scintillation counter.
as §3

Chain of human CB2 receptor (P34972 whole entry): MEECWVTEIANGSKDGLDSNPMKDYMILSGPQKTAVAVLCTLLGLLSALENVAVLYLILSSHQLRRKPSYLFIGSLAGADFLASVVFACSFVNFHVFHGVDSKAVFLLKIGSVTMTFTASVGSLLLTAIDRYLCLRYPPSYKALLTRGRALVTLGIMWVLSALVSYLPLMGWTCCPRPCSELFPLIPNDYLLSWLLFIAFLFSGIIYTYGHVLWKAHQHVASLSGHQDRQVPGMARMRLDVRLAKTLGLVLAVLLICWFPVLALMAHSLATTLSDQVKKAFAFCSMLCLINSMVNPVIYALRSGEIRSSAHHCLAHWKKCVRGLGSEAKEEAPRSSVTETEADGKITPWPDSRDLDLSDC
T1 sequence (P21554 whole entry): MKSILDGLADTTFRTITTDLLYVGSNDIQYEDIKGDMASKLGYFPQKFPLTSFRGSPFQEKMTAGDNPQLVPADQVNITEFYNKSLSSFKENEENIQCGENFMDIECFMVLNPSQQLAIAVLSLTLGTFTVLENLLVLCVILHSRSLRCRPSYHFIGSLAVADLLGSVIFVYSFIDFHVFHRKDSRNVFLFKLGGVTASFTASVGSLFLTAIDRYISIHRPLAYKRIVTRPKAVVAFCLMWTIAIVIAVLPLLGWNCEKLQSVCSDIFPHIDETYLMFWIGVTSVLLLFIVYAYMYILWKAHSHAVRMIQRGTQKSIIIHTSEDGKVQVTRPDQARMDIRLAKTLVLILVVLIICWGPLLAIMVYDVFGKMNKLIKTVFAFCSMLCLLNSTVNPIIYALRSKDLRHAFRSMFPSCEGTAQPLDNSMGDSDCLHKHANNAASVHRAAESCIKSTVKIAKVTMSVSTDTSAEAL

With `CC12CCC(C1)C(C)(C)C2NC(=O)c1nn(Cc2ccccc2)c2c1CCCC2` (stereo not shown) [Cpd 194, 1-benzyl-4,5,6,7-tetrahydro-1H-indazole-3-carboxylic acid (1,3,3-trimethyl-bicyclo[2.2.1]hept-2-yl)-amide], the IC50 stood at 0.1 nM in assay [1] and 0.2 nM in assay [2].
The corresponding values for `O=C(NC1C2CC3CC(C2)CC1C3)c1nn(C2CCCCC2)c2c1CC(C(=O)O)CC2` (stereo not shown) [Cpd 223, 3-(adamantan-2-ylcarbamoyl)-1-cyclohexyl-4,5,6,7-tetrahydro-1H-indazole-5-carboxylic acid] are 170000 nM and 2900 nM.
For the compound `COc1ccc(C(O)CNC(=O)c2nn(C3CCCCC3)c3c2CCCC3)cc1` (stereo not shown) [Cpd 241, 1-cyclohexyl-4,5,6,7-tetrahydro-1H-indazole-3-carboxylic acid [2-hydroxy-2-(4-methoxy-phenyl)-ethyl]-amide], the IC50 in assay [1] came out at 3400 nM; in assay [2] it was 500 nM.
For `O=C(NCC1CCCCC1)c1nn(C2CCCCC2)c2c1CCCC2` [Cpd 304, 1-cyclohexyl-4,5,6,7-tetrahydro-1H-indazole-3-carboxylic acid cyclohexylmethylamide], the IC50 in assay [1] was 160 nM; in assay [2], 20 nM.
The corresponding values for `C[C@H](C1CCCCC1)N(C)C(=O)c1nn(C2CCCCC2)c2c1CCCC2` [Cpd 328, 1-cyclohexyl-4,5,6,7-tetrahydro-1H-indazole-3-carboxylic acid [(1R)-1-cyclohexyl-ethyl]-methylamide] are 5100 nM and 1600 nM.
As to `O=C(NC(c1ccccc1)C1CCCCC1)c1nn(C2CCCCC2)c2c1CCCC2` (stereo not shown) [Cpd 331, 1-cyclohexyl-4,5,6,7-tetrahydro-1H-indazole-3-carboxylic acid (cyclohexyl-phenyl)methylamide], the figures for the IC50 in assay [1] and in assay [2] were 3000 nM and 98 nM, respectively.
`CCOC(=O)C(Cc1nn(C2CCCCC2)c2c1CCCC2)c1ccccc1OC` (stereo not shown) [Cpd 332, 3-(1-cyclohexyl-4,5,6,7-tetrahydro-1H-indazol-3-yl)-2-(2-methoxy-phenyl)-propionic acid ethyl ester]: the values for the IC50 in assay [1] and in assay [2] were 3900 nM and 1900 nM, respectively.
The corresponding values for `COc1ccccc1C(Cc1nn(C2CCCCC2)c2c1CCCC2)C(=O)NC1C2(C)CCC(C2)C1(C)C` (stereo not shown) [Cpd 333, 3-(1-cyclohexyl-4,5,6,7-tetrahydro-1H-indazol-3-yl)-2-(2-methoxy-phenyl)-N-(1,3,3-trimethyl-bicyclo[2.2.1]hept-2-yl)-propionamide] are 5700 nM and 2900 nM.
For the compound `COC(=O)C(Cc1ccc(O)cc1)NC(=O)c1nn(-c2ccc(OC)cc2)c2c1CCCC2` (stereo not shown) [compound 5], the IC50 came out at 6800 nM in assay [1] and 291 nM in assay [2].
The corresponding values for `COC(=O)C(Cc1ccc(O)cc1)NC(=O)c1c2c(nn1-c1ccc(OC)cc1)CCCC2` (stereo not shown) [compound 6] are 6750 nM and 367 nM.
The corresponding values for `Cc1ccc(-n2nc(C(=O)NC3C4(C)CCC(C4)C3(C)C)c3c2CCCC3)cc1` (stereo not shown) [compound 11] are 285 nM and 40.6 nM.
The corresponding values for `CC12CCC(C1)C(C)(C)C2NC(=O)c1nn(-c2ccc(Cl)cc2)c2c1CCCC2` (stereo not shown) [compound 12] are 148 nM and 21.4 nM.
As to `O=C(NC1CCCCCCC1)c1nn(-c2ccc(F)cc2)c2c1CCCC2` [compound 15], the results for the IC50 in assay [1] and in assay [2] were 241 nM and 53.8 nM, respectively.
The corresponding values for `CC12CCC(C1)C(C)(C)C2NC(=O)c1nn(-c2ccccc2F)c2c1CCCC2` (stereo not shown) [compound 16] are 185 nM and 5.4 nM.
The corresponding values for `O=C(NC1CC2CCC1C2)c1nn(-c2ccc(F)cc2)c2c1CCCC2` (stereo not shown) [compound 20] are 169 nM and 35.2 nM.
The corresponding values for `CC1(C)C2CCC1(C)C(NC(=O)c1nn(-c3ccc(F)cc3)c3c1CCCC3)C2` (stereo not shown) [compound 21] are 44 nM and 11 nM.
Take `CC(NC(=O)c1nn(-c2ccc(F)cc2)c2c1CCCC2)C1C2CC3CC(C2)CC1C3` (stereo not shown) [compound 22]: the IC50 in assay [1] turned out to be 1030 nM; in assay [2], 143 nM.
On to `CCOC(=O)C1C2CCC(C2)C1NC(=O)c1nn(-c2ccc(F)cc2)c2c1CCCC2` (stereo not shown) [compound 23], for which the results for the 50% inhibitory concentration (IC50) in assay [1] and in assay [2] were 1800 nM and 100 nM, respectively.
The corresponding values for `CC12CCC(C1)C(C)(C)C2NC(=O)c1nn(-c2ccc(F)cc2)c2c1CCCC2C1CCCCC1` (stereo not shown) [compound 24] are 3810 nM and 6820 nM.
As to `CC1(C)C2CCC1(C)C(NC(=O)c1nn(C3CCCCC3)c3c1CCCC3)C2` (stereo not shown) [compound 25], the IC50 was found to be 75.3 nM in assay [1] and 1.6 nM in assay [2].
For `O=C(NNC1CCCCC1)c1nn(Cc2ccccc2)c2c1CCCC2` [compound 29], the IC50 in assay [1] was found to be 790 nM; in assay [2] it was 115 nM.
Consider `O=C(NNC1CCCCC1)c1nn(-c2ccc(F)cc2)c2c1CCCC2` [compound 30], for which the IC50 was found to be 7890 nM in assay [1] and 1470 nM in assay [2].
With `O=C(NNC1CCCCC1)c1nn(C2CCCCC2)c2c1CCCC2` [compound 31], the IC50 in assay [1] came out at 1690 nM; in assay [2], 195 nM.
As to `CCOC(=O)[C@@H]1CCCC[C@H]1NC(=O)c1nn(-c2ccc(F)cc2)c2c1CCCC2` [compound 34], the IC50 in assay [1] worked out at 136 nM; in assay [2] it was 40.9 nM.
The corresponding values for `CC(NC(=O)c1nn(Cc2ccccc2)c2c1CCCC2)C12CC3CC(CC(C3)C1)C2` (stereo not shown) [compound 39] are 9 nM and 6 nM.
The corresponding values for `O=C(NN1CCCCCC1)c1nn(Cc2ccccc2)c2c1CCCC2` [compound 41] are 49 nM and 34.8 nM.
For the compound `CCOC(=O)C1C2CCC(C2)C1NC(=O)c1c2c(nn1Cc1ccccc1)CCCC2` (stereo not shown) [compound 42], the IC50 in assay [1] came out at 10700 nM; in assay [2], 640 nM.
The corresponding values for `O=C(NC1C2CC3CC(C2)CC1C3)c1nn(C2CCCCC2)c2c1CCCC2` (stereo not shown) [compound 45] are 40 nM and 5.6 nM.
The corresponding values for `O=C(N[C@@H]1CCCC[C@@H]1CO)c1nn(C2CCCCC2)c2c1CCCC2` [compound 48] are 249 nM and 55.3 nM.
The corresponding values for `O=C(N[C@@H]1CCCC[C@H]1CO)c1nn(C2CCCCC2)c2c1CCCC2` [compound 49] are 150 nM and 72.8 nM.
Take `O=C(CCc1nn(C2CCCCC2)c2c1CCCC2)N[C@@H]1CCCC[C@H]1CO` [compound 51]: the IC50 came out at 15200 nM in assay [1] and 8420 nM in assay [2].
`O=C(CCc1nn(C2CCCCC2)c2c1CCCC2)N[C@@H]1C2CCC(C2)[C@@H]1CO` (stereo partly shown) [compound 52]: the IC50 in assay [1] is 6260 nM; in assay [2], 4900 nM.
As for `CC(NC(=O)CCc1nn(C2CCCCC2)c2c1CCCC2)C12CC3CC(CC(C3)C1)C2` (stereo not shown) [compound 53], the IC50 in assay [1] was found to be 6120 nM; in assay [2], 230 nM.
The corresponding values for `CCOC(=O)[C@H]1C2CCC(C2)[C@H]1NC(=O)CCc1nn(C2CCCCC2)c2c1CCCC2` (stereo partly shown) [compound 54] are 11400 nM and 6050 nM.
The corresponding values for `CCOC(=O)C1=C(NC(=O)c2nn(C3CCCCC3)c3c2CCCC3)CCC1` [compound 57] are 10900 nM and 2200 nM.
The corresponding values for `CCOC(=O)[C@H]1CCC[C@H]1NC(=O)c1nn(C2CCCCC2)c2c1CCCC2` [compound 58] are 736 nM and 170 nM.
Take `CCOC(=O)[C@H]1CCCC[C@@H]1NC(=O)c1nn(C2CCCCC2)c2c1CCCC2` [compound 59]: the IC50 was 340 nM in assay [1] and 70 nM in assay [2].
The corresponding values for `CCOC(=O)[C@@H]1CCC[C@@H]1NC(=O)c1nn(C2CCCCC2)c2c1CCCC2Cl` (stereo partly shown) [compound 61] are 2190 nM and 190 nM.
For `CCOC(=O)[C@H]1C2CCC(C2)[C@H]1NC(=O)c1nn(C2CCCCC2)c2c1CCCC2Cl` (stereo partly shown) [compound 63], the values for the half-maximal inhibitory concentration (IC50) in assay [1] and in assay [2] were 13700 nM and 3300 nM, respectively.
The corresponding values for `CC(NC(=O)c1nn(C2CCCCC2)c2c1CCCC2Cl)C12CC3CC(CC(C3)C1)C2` (stereo not shown) [compound 64] are 410 nM and 30 nM.
With `CCOC(=O)C1CCc2c(C(=O)NC3C4CC5CC(C4)CC3C5)nn(C3CCCCC3)c2C1` (stereo not shown) [compound 68], the IC50 in assay [1] is 463 nM; in assay [2] it was 57 nM.
